Experimental data published in ChEMBL document CHEMBL2074329, “Characterization of the transport of a cationic octapeptide, octreotide, in rat bile canalicular membrane: possible involvement of P-glycoprotein” (Biol Pharm Bull, 1998).
Bridge positions count the residues as written; N and C are the ends. Square brackets hold non-standard residues; d marks the D form. Peptide text beside a SMILES is read from it. * marks the point of attachment. Threoninol(2S,3R) = C[C@@H](O)[C@H](CO)N*

Target: Multidrug resistance protein 1a (Rattus norvegicus) (UniProt Q6PSM0)
Test: TP_TRANSPORTER: uptake, inhibited by Verapamil, Vincristine and PSC833 in bile canalicular membrane vesicles from SD rat
Assay type: functional, cell membranes
Details: Sprague-Dawley, Bile canalicular membrane vesicle

Chain of Multidrug resistance protein 1a (Rattus norvegicus) (Q6PSM0 as listed by the source): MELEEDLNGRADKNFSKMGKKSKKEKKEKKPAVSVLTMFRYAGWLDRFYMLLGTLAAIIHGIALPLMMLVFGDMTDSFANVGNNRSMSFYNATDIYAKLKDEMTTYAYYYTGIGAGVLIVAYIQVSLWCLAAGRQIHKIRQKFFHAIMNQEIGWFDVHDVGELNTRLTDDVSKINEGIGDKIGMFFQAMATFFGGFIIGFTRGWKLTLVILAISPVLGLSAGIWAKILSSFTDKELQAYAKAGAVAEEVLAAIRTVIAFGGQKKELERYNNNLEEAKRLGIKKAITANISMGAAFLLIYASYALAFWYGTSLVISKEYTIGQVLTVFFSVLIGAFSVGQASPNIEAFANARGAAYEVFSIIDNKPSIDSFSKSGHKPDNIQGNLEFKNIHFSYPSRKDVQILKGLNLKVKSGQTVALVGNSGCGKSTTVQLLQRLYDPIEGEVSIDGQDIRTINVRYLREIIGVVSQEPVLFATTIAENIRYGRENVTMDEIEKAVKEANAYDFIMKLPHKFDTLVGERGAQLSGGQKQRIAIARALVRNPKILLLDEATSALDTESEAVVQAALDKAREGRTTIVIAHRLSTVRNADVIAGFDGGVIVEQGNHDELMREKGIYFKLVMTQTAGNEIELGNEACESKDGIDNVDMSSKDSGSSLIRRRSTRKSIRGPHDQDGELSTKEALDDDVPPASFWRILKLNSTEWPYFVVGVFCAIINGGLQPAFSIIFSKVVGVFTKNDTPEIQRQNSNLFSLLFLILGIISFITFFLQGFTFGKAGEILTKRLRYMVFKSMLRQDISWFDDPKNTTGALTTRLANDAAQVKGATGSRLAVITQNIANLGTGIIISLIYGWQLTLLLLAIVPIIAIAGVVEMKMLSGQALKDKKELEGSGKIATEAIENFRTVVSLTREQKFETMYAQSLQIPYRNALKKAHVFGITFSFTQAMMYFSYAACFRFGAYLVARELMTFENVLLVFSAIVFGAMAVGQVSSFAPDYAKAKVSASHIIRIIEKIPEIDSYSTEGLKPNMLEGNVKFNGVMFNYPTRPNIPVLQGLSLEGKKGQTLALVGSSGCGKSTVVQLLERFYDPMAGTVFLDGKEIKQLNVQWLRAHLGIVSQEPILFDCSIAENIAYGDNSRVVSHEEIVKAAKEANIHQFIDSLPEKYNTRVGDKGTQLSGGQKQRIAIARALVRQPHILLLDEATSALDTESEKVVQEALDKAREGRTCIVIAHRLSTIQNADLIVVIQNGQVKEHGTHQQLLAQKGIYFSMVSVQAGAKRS

Q: With `C[C@@H](O)[C@H](CO)NC(=O)[C@@H]1CSSC[C@H](NC(=O)[C@H](N)Cc2ccccc2)C(=O)N[C@@H](Cc2ccccc2)C(=O)N[C@H](Cc2c[nH]c3ccccc23)C(=O)N[C@@H](CCCCN)C(=O)N[C@@H]([C@@H](C)O)C(=O)N1` (H-[dF]CF[dW]KTC-{Threoninol(2S,3R)}; disulfide 2-7) as the molecule, how does the Activity read?
A: Its Activity is “substrate [+]”.
